From patent US20250375417A1, “OREXIN RECEPTOR 2 (OX2R) AGONIST FOR USE IN NARCOLEPSY TYPE 1 (NT1)” (TAKEDA PHARMACEUTICAL COMPANY LIMITED, priority 2024, published 2025)
Where “and” joins values, the source holds several entries; their conditions need not be identical. Equal entries are not always repeated.

Tests used:
participants with NT1 = assay: Functional Impacts of Narcolepsy Instrument (FINI), Phase 2 NT1 trial; format: in vivo, human; settings: range across Compound A doses
Text: The functional impact of NT1 on subjects can be assessed by the FINI. The FINI is a fit-for-purpose 28-item instrument developed by the sponsor to ensure easy to interpret concepts that are meaningful to narcolepsy patients. The FINI measures the functional impacts of narcolepsy across 6 domains: Tiredness (items 1-7), Cognitive Functioning (items 8-12), Cataplexy (items 13-17), Social Activities (items 18-21), Everyday Activities (items 22-25), and Everyday Responsibilities (items 26-28). Each item asks about the impact that narcolepsy has had on their daily functioning during the past 7 days, and scored from 0-4, where 0 indicates the best health and 4 the worst. There is no total score; for each participant, an average score is calculated for each domain, if at least half the items in the domain have been answered:
Sum of responses in the domain/Number of completed items in the domain
The average domain score is then standardized to a 0-100 scale, where 0 indicates the best health and 100 the worst health. A decrease from baseline would thus indicate improved health:
Standardized score=average score/4×100
An analysis of exploratory data from the trial investigated the effect of Compound A on functioning and HRQoL in individuals with ICSD-3 confirmed NT1. Participants aged 18-70 years (Japan: 16-70), with an Epworth Sleepiness Scale (ESS) score>12, and ≥4 partial/complete episodes of cataplexy/week were eligible for inclusion. Participants were randomized to oral Compound A (0.5 mg twice 3 hours apart, 2 mg twice 3 hours apart, 2 mg then 5 mg 3 hours later, or 7 mg once-daily), or placebo. Exploratory endpoints included 3 domains (social activities, everyday activities, and everyday responsibilities) from the 6-domain Functional Impacts of Narcolepsy Instrument (FINI) in which each item uses 5-point Likert scale and higher standardized domain scores (0-100) indicate more severe impact; the 36-item short-form (SF-36); and the EuroQoL 5-Dimensions 5-Levels (EQ-5D-5L) questionnaire.

patients with NT1 [1] = tested on: patients with NT1; design: species or system human; settings: in vivo
patients with NT1 [2] = assay: Ambulatory blood pressure monitoring (ABPM), nocturnal BP dip, Phase 2 NT1 trial; format: in vivo, human; settings: for DBP 24-h average, LS mean change at Week 6 from baseline / DBP 24-h pattern dip, LS mean change at Week 6 from baseline / DBP 24-h pattern highest, LS mean change at Week 6 from baseline / DBP 24-h pattern lowest, LS mean change at Week 6 from baseline / SBP 24-h average, LS mean change at Week 6 from baseline / SBP 24-h pattern dip, LS mean change at Week 6 from baseline / SBP 24-h pattern highest, LS mean change at Week 6 from baseline / SBP 24-h pattern lowest, LS mean change at Week 6 from baseline: baseline DBP non-dippers
Text: Blunted nocturnal blood pressure (BP) dip, a potential risk factor for cardiovascular disease, may affect approximately ⅓ of patients with NT1. In the studies described herein, ambulatory blood pressure monitoring (ABPM) recordings can be obtained over an approximately 24.5-hour period and participants should not be confined to the clinical site during most of the 24.5-hour recording period. The ABPM device should be applied on-site. Because it is a requirement that the ABPM devices begin recording in the morning before the first morning dose (or similar time if performed during screening period), site staff may opt to confine participants in the evening before fitting participants with the ABPM monitoring device. If the participant is travelling to the site for the ABPM fitting, they may delay their first morning dose of study medication (to be taken no later than 10 AM) if needed. Participants who are confined the evening prior should also take their study drug right after the ABPM recording starts. For the ABPM during the screening period, the recording should begin between 8:00 AM±2 hours. Sites should ensure that all recordings meet the minimum threshold of acceptability. […] Participants will be trained on the use of the device with NT1.
Using functional data analysis, systolic BP (SBP) and diastolic BP (DBP) can be estimated in 24-hour patterns and key parameters, such as average, waveform amplitude, lowest and highest points, and dip amplitude (defined as [average−lowest]/average) can be extracted for each subject-visit. Non-dippers are defined as DBP 24-hour dip<13.44, as projected from a DBP fixed-window daytime to nighttime dip of <10%.
Blunted nocturnal blood pressure (BP) dip, a potential risk factor for cardiovascular disease, may affect approximately ⅓ of patients with narcolepsy type 1 (NT1). Ambulatory BP monitor (ABPM) data from 112 study patients with NT1 was measured. Using functional data analysis, systolic BP (SBP) and diastolic BP (DBP) were estimated in 24-hour patterns and key parameters were extracted, such as average, waveform amplitude, lowest and highest values, and dip amplitude (defined as [average-lowest]/average) at baseline and Week 6. […] Non-dippers were defined as having DBP 24-hour dip below a threshold corresponding to DBP daytime (6 am-10 pm) to nighttime ([…]) drop of <10%. Longitudinal changes in BP parameters were quantified across five randomized treatment arms (placebo, Compound A 0.5 mg twice 3 hours apart, 2 mg twice 3 hours apart, 2 mg then 5 mg 3 hours later, and 7 mg once-daily) at Week 6 post-baseline. Associations between BP and sleep parameters were assessed longitudinally by matching ABPM data from baseline and Week 6 with nocturnal polysomnography data from baseline and Week 8, respectively.

CCS(=O)(=O)N[C@@H]1[C@H](Cc2cccc(-c3cc(F)cc(F)c3)c2F)N(C(=O)C(C)(C)O)CC1(F)F [Compound A, N-{(2S,3R)-4,4-difluoro-1-(2-hydroxy-2-methylpropanoyl)-2-[(2,3′,5′-trifluoro[1,1′-biphenyl]-3-yl)methyl]pyrrolidin-3-yl}ethanesulfonamide]
FINI-Everyday Activities, LS mean change from baseline to Week 8 (participants with NT1): −41.4 to −54.5
FINI-Everyday Responsibilities, LS mean change from baseline to Week 8 (participants with NT1): −35.0 to −53.7
FINI-Social Activities, LS mean change from baseline to Week 8 (participants with NT1): −29.9 to −43.1
Improvement on CPAL total errors (patients with NT1 [1]): statistically significant across all doses
Improvement on ONB reaction time (patients with NT1 [1]): statistically significant across all doses
Improvement on iDSST-s number correct (patients with NT1 [1]): statistically significant across all doses
SBP or DBP dip, change from baseline at Week 6 (patients with NT1 [2]; baseline DBP dippers (n=73), either treatment arm): no significant changes
DBP 24-h average, LS mean change at Week 6 from baseline (patients with NT1 [2]; 0.5 mg/0.5 mg): 0.17
DBP 24-h pattern dip, LS mean change at Week 6 from baseline (patients with NT1 [2]; 0.5 mg/0.5 mg): 2.7% and 2.67%
DBP 24-h pattern highest, LS mean change at Week 6 from baseline (patients with NT1 [2]; 0.5 mg/0.5 mg): 0.75
DBP 24-h pattern lowest, LS mean change at Week 6 from baseline (patients with NT1 [2]; 0.5 mg/0.5 mg): −1.73
SBP 24-h average, LS mean change at Week 6 from baseline (patients with NT1 [2]; 0.5 mg/0.5 mg): −1.42
SBP 24-h pattern dip, LS mean change at Week 6 from baseline (patients with NT1 [2]; 0.5 mg/0.5 mg): 1.20%
SBP 24-h pattern highest, LS mean change at Week 6 from baseline (patients with NT1 [2]; 0.5 mg/0.5 mg): −0.87
SBP 24-h pattern lowest, LS mean change at Week 6 from baseline (patients with NT1 [2]; 0.5 mg/0.5 mg): −2.48
DBP 24-h average, LS mean change at Week 6 from baseline (patients with NT1 [2]; 2 mg/2 mg): −0.08
DBP 24-h pattern dip, LS mean change at Week 6 from baseline (patients with NT1 [2]; 2 mg/2 mg): 7.9% and 7.91%
DBP 24-h pattern highest, LS mean change at Week 6 from baseline (patients with NT1 [2]; 2 mg/2 mg): 1.62
DBP 24-h pattern lowest, LS mean change at Week 6 from baseline (patients with NT1 [2]; 2 mg/2 mg): −5.93
SBP 24-h average, LS mean change at Week 6 from baseline (patients with NT1 [2]; 2 mg/2 mg): 0.05
SBP 24-h pattern dip, LS mean change at Week 6 from baseline (patients with NT1 [2]; 2 mg/2 mg): 5.36%
SBP 24-h pattern highest, LS mean change at Week 6 from baseline (patients with NT1 [2]; 2 mg/2 mg): 1.45
SBP 24-h pattern lowest, LS mean change at Week 6 from baseline (patients with NT1 [2]; 2 mg/2 mg): −6.55
DBP 24-h average, LS mean change at Week 6 from baseline (patients with NT1 [2]; 2 mg/5 mg): −3.40
DBP 24-h pattern dip, LS mean change at Week 6 from baseline (patients with NT1 [2]; 2 mg/5 mg): 8.1% and 8.11%
DBP 24-h pattern highest, LS mean change at Week 6 from baseline (patients with NT1 [2]; 2 mg/5 mg): −1.18
DBP 24-h pattern lowest, LS mean change at Week 6 from baseline (patients with NT1 [2]; 2 mg/5 mg): −8.71
SBP 24-h average, LS mean change at Week 6 from baseline (patients with NT1 [2]; 2 mg/5 mg): −4.13
SBP 24-h pattern dip, LS mean change at Week 6 from baseline (patients with NT1 [2]; 2 mg/5 mg): 4.11%
SBP 24-h pattern highest, LS mean change at Week 6 from baseline (patients with NT1 [2]; 2 mg/5 mg): −1.86
SBP 24-h pattern lowest, LS mean change at Week 6 from baseline (patients with NT1 [2]; 2 mg/5 mg): −8.80
DBP 24-h average, LS mean change at Week 6 from baseline (patients with NT1 [2]; 7 mg QD): −0.75
DBP 24-h pattern dip, LS mean change at Week 6 from baseline (patients with NT1 [2]; 7 mg QD): 6.6% and 6.61%
DBP 24-h pattern highest, LS mean change at Week 6 from baseline (patients with NT1 [2]; 7 mg QD): 1.26
DBP 24-h pattern lowest, LS mean change at Week 6 from baseline (patients with NT1 [2]; 7 mg QD): −5.13
SBP 24-h average, LS mean change at Week 6 from baseline (patients with NT1 [2]; 7 mg QD): 1.32
SBP 24-h pattern dip, LS mean change at Week 6 from baseline (patients with NT1 [2]; 7 mg QD): 3.28%
SBP 24-h pattern highest, LS mean change at Week 6 from baseline (patients with NT1 [2]; 7 mg QD): 3.31
SBP 24-h pattern lowest, LS mean change at Week 6 from baseline (patients with NT1 [2]; 7 mg QD): −2.44
DBP 24-hour pattern dip, change from baseline at Week 6 (patients with NT1 [2]; whole population (n=111), any Compound A dose): no significant changes
